Measurements: patent publication US8541418B2, “Inhibitors of polo-like kinase” (Elan Pharmaceutical, Inc., priority 2009, dated 2013)

Assays:
PLK2 [1] = target: T1, PLK2 (Homo sapiens, UniProt Q9NYY3); assay: Kinase panel screening at InVitrogen, PLK2; settings: 10 μM compound
PLK2 [2] = target: T1, PLK2; assay: PLK TR-FRET peptide assay, PLK2; type: biochemical; settings: PLK TR-FRET peptide assay, GST-PLK2, 60 min reaction; read-out: Plk2 IC50
ABL1 = ABL1 (Homo sapiens, UniProt P00519); assay: Kinase panel screening and titration, ABL1; settings: read-out: inhibition of ABL1
PLK1 [3] = target: T2, PLK1 (Homo sapiens, UniProt P53350); assay: PLK TR-FRET peptide assay, PLK1; type: biochemical; settings: GST-PLK1, 60 min reaction
PLK1 [4] = target: T2, PLK1; assay: Kinase panel screening at InVitrogen, PLK1; settings: 10 μM compound
[5] = test system: over 300 kinases, including CDK-1, CDK-2, CDK-5, CLK-1, CLK-2, CLK-3, CLK-4, NEK-1, NEK-2, NEK-4, NEK-6, NEK-7, MAP4K4 and STK16; assay: Kinase panel screening at InVitrogen, over 300 kinases; settings: 10 μM compound; all but 21 of the kinases, including CDK-1, CDK-2, CDK-5, CLK-1 to CLK-4, NEK-1, -2, -4, -6, -7, MAP4K4, STK16
PLK3 = PLK3 (Homo sapiens, UniProt Q9H4B4); assay: PLK TR-FRET peptide assay, PLK3; type: biochemical; settings: GST-PLK3, 15 min reaction, read-out: Plk3 IC50
KDR = KDR (Homo sapiens, UniProt P35968); assay: Kinase panel screening and titration, KDR; settings: read-out: inhibition of KDR
Sequence of KDR (P35968 20-1356): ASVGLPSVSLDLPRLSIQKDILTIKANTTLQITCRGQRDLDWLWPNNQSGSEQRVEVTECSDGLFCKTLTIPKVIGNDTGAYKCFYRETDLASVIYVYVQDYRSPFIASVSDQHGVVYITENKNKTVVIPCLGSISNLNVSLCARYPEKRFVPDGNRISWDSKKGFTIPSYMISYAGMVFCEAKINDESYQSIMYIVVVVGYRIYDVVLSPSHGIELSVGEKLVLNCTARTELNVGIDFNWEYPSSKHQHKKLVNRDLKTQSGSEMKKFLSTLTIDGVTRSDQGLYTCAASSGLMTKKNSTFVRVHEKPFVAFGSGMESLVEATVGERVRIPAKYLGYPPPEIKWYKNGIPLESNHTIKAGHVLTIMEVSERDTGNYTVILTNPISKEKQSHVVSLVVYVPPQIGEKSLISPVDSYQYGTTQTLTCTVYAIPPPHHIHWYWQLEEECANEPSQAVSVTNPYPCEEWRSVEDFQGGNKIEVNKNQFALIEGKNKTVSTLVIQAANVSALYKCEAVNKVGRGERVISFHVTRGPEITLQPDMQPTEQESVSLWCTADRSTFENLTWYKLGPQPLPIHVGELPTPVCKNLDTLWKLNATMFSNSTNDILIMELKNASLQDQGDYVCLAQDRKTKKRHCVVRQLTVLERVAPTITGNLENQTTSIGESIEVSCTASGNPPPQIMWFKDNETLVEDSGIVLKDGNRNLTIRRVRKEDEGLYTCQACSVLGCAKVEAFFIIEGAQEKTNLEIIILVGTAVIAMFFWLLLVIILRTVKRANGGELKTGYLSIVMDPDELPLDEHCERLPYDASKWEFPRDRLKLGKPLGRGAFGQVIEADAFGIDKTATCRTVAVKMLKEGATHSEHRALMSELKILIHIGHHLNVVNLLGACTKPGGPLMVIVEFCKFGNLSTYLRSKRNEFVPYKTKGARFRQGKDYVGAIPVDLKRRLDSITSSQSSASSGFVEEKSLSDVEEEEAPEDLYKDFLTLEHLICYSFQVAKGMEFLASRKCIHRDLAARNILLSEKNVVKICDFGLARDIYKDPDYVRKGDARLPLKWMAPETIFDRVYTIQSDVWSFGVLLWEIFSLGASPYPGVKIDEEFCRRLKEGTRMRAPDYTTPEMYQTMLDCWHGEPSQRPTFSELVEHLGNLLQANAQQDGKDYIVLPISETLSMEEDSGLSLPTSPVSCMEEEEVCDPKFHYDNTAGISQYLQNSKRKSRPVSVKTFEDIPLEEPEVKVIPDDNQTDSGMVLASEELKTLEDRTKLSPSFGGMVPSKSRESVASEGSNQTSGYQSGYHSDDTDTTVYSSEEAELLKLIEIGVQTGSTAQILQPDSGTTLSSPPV

T2 sequence (P53350 whole entry): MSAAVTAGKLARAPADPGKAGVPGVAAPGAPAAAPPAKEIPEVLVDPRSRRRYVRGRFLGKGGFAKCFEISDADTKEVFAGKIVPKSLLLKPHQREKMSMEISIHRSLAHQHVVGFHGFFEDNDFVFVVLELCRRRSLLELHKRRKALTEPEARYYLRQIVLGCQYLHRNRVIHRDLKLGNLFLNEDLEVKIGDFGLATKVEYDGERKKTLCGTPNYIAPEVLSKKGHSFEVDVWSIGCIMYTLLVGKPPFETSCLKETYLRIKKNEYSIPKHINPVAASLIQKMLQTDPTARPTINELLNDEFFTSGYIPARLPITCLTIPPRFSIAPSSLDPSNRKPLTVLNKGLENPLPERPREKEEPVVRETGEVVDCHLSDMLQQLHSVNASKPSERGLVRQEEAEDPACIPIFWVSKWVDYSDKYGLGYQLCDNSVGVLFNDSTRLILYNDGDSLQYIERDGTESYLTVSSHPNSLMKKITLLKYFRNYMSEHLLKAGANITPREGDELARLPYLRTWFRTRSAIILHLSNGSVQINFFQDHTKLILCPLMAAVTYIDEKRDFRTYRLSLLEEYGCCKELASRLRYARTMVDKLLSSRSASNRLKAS
T1 sequence (Q9NYY3 whole entry): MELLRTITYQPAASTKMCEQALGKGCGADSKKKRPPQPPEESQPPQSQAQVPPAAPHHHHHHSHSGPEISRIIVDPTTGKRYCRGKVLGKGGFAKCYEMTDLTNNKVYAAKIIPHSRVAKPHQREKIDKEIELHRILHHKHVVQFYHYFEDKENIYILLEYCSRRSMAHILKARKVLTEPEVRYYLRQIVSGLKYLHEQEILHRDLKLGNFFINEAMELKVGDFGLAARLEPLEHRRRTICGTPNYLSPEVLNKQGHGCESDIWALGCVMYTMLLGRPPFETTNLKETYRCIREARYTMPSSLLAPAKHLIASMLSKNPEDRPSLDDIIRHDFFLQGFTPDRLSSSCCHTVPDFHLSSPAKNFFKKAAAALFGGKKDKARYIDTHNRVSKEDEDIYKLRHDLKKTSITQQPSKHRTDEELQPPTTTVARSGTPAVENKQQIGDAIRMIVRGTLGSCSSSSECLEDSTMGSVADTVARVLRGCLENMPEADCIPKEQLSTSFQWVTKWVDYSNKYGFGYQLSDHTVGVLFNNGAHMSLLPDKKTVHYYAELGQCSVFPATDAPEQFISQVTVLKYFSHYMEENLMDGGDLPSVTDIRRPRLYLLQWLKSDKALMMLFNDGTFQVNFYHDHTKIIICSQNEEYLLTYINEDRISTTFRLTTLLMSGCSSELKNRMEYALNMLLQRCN
Sequence of PLK3 (Q9H4B4 whole entry): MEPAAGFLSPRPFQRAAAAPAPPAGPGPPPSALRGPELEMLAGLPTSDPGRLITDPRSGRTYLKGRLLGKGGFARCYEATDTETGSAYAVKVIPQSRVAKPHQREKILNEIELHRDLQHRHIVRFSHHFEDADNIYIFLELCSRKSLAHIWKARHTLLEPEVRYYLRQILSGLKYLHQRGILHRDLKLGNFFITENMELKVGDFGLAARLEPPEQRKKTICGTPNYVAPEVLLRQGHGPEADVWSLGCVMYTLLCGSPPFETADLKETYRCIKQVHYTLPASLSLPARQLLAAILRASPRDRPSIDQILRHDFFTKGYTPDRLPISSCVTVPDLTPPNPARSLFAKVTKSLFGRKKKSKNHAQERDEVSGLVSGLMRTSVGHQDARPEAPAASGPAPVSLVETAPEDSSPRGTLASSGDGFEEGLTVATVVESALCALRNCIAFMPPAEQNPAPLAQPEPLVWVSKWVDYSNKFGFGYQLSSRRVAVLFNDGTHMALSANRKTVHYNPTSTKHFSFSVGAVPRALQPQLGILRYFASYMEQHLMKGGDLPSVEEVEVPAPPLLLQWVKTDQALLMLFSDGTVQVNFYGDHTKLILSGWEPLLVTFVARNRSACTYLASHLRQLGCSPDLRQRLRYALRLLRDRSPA
Sequence of ABL1 (P00519 whole entry): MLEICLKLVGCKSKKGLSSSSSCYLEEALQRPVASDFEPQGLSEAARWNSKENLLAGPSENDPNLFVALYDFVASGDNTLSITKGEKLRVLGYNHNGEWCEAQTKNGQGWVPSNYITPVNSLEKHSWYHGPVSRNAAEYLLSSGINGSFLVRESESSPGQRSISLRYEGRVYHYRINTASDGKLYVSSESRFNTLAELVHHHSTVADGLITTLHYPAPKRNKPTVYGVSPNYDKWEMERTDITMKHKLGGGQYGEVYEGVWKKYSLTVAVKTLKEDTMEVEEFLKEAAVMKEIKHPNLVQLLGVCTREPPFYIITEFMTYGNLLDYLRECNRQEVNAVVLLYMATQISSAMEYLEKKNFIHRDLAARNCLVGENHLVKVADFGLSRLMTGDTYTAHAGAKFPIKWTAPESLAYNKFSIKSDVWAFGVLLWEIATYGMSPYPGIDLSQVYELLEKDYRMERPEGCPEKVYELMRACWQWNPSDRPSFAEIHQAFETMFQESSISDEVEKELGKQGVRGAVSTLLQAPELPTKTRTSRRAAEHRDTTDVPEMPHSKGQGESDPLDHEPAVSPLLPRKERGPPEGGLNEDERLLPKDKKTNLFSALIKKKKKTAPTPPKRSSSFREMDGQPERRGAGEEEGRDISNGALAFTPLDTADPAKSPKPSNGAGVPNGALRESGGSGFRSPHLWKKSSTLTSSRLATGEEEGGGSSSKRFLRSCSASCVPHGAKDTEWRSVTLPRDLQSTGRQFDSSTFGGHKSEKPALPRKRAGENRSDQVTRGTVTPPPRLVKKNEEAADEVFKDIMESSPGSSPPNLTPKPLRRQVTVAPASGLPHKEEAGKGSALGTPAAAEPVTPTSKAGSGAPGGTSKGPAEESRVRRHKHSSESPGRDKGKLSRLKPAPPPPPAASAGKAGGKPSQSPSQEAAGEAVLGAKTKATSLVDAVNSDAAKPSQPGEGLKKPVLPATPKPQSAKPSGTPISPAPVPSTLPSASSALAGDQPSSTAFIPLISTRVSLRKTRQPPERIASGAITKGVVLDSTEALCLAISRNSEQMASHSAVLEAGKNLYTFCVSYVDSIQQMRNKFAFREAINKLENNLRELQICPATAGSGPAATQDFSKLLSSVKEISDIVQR

activity against PLK2 in kinase panel (PLK2 [1])	IC50 (PLK2 [2]) [nM]	inhibition at 10 µM (ABL1) [%]	IC50 (PLK1 [3]) [nM]	activity against PLK1 in kinase panel (PLK1 [4])	inhibition of kinases in panel of over 300 [5]	IC50 (PLK3) [nM]	inhibition at 10 µM (KDR) [%]	SMILES
potent	< 1000	> 80	< 1000	potent	below 40%	1000 to 10000	> 80	CC[C@@H]1C(=O)N(C)c2cnc(-n3ccnc3-c3cccc(F)c3)nc2N1C1CCOC1 (stereo partly drawn) [Example 192, (7R)-7-ethyl-2-(2-(3-fluorophenyl)-1H-imidazol-1-yl)-5-methyl-8-(tetrahydrofuran-3-yl)-7,8-dihydropteridin-6(5H)-one]
potent	–	–	–	potent	–	–	–	CC[C@@]12CCCN1c1nc(-n3ccnc3-c3ccccc3)ncc1N(C)C2=O [Example 76, (S)-6a-ethyl-5-methyl-2-(2-phenyl-1H-imidazol-1-yl)-6a,7,8,9-tetrahydropyrrolo[2,1-h]pteridin-6(5H)-one]
potent	< 1000	–	< 1000	potent	–	< 1000	–	CC[C@@H]1C(=O)N(C)c2cnc(-n3ccnc3-c3cscn3)nc2N1C1CCCC1 [Example 68, (R)-8-cyclopentyl-7-ethyl-5-methyl-2-(2-(thiazol-4-yl)-1H-imidazol-1-yl)-7,8-dihydropteridin-6(5H)-one]

SMILES	activity against PLK2 in kinase panel (PLK2 [1])	IC50 (PLK2 [2]) [nM]	inhibition at 10 µM (ABL1) [%]	IC50 (PLK1 [3]) [nM]	activity against PLK1 in kinase panel (PLK1 [4])	inhibition of kinases in panel of over 300 [5]	IC50 (PLK3) [nM]	inhibition at 10 µM (KDR) [%]
CC[C@@H]1C(=O)N(C)c2cnc(-n3ccnc3-c3ccccc3)nc2N1C1CCCC1 [Example 26, (R)-8-cyclopentyl-7-ethyl-5-methyl-2-(2-phenyl-1H-imidazol-1-yl)-7,8-dihydropteridin-6(5H)-one]	potent	–	–	–	–	–	–	–
